According to patent US4861788A, “Antibacterial 1-normon-2-yl-heterocyclic compounds” (Beecham Group plc, priority 1983, dated 1989):
≈ marks a conversion by molar mass, not a printed value. Where two headings read alike, the source gives them in different places.

Experiments:
[1] = test system: M. hyopneumoniae JF 435; experiment: MIC against Mycoplasma in vitro (Friis broth with agarose); format: cell-based; conditions: Mesomycoplasma hyopneumoniae, JF435, 144 h
[2] = test system: M. hyopneumoniae Str. 11; experiment: as above; format: cell-based; conditions: Mesomycoplasma hyopneumoniae
[3] = test system: M. hyopneumoniae J2206/183^b; experiment: as above; format: cell-based; conditions: Mesomycoplasma hyopneumoniae, 144 h; M. hyopneumoniae J2206/183^b; 6 days at 37° C; read-out: MIC
[4] = test system: M. hyopneumoniae MS 16; experiment: as above; format: cell-based; conditions: Mesomycoplasma hyopneumoniae, MS16, 144 h; M. hyopneumoniae MS 16; 6 days at 37° C; read-out: MIC
[5] = test system: M. hyopneumoniae UCD 1; experiment: as above; format: cell-based; conditions: Mesomycoplasma hyopneumoniae, UCD1, 144 h; M. hyopneumoniae UCD 1; 6 days at 37° C; read-out: MIC
[6] = test system: M. hyopneumoniae ATCC 25095; experiment: as above; format: cell-based; conditions: Mesomycoplasma hyopneumoniae, ATCC25095, 144 h; M. hyopneumoniae ATCC 25095; 6 days at 37° C; read-out: MIC
[7] = test system: M. hyopneumoniae NCTC 101101; experiment: as above; format: cell-based; conditions: Mesomycoplasma hyopneumoniae, NCTC101101, 144 h
[8] = test system: M. hyorhinis ATCC 23234; experiment: as above; format: cell-based; conditions: Mesomycoplasma hyorhinis, ATCC23234, 144 h; M. hyorhinis ATCC 23234; 6 days at 37° C; read-out: MIC
[9] = test system: M. hyorhinis ATCC 25021; experiment: as above; format: cell-based; conditions: Mesomycoplasma hyorhinis, ATCC25021, 144 h; M. hyorhinis ATCC 25021; 6 days at 37° C; read-out: MIC
[10] = test system: M. bovis NCTC 10131; experiment: microbe, parasite or virus in culture; format: cell-based; conditions: NCTC10131, 144 h
[11] = test system: M. gallisepticum S6; experiment: MIC against Mycoplasma in vitro (Friis broth with agarose); format: cell-based; conditions: Mycoplasmoides gallisepticum, 144 h; M. gallisepticum S6; 6 days at 37° C; read-out: MIC
[12] = test system: M. pneumoniae ATCC 15492; experiment: as above; format: cell-based; conditions: Mycoplasmoides pneumoniae, ATCC15492, 144 h; M. pneumoniae ATCC 15492; 6 days at 37° C; read-out: MIC
[13] = test system: Bacillus subtilis 6633; experiment: MIC against human bacteria in vitro (nutrient agar, chocolated horse blood); format: cell-based; conditions: human; Bacillus subtilis 6633; 18 hours at 37° C; read-out: MIC
Protocol: (§1) The activity of the normonyl derivaties of the Examples against various bacteria which are important in diseases of humans, was assayed in vitro using serial dilutions in nurient agar with 5% chocolated horse blood.

[14] = test system: E. coli NCTC 10418; experiment: as above; format: cell-based; conditions: Escherichia coli, NCTC10418; human; E. coli NCTC 10418; 18 hours at 37° C; read-out: MIC
Protocol: as §1

[15] = test system: P. mirabilis 889; experiment: as above; format: cell-based; conditions: Proteus mirabilis; human; P. mirabilis 889; 18 hours at 37° C; read-out: MIC
Protocol: as §1

[16] = test system: Pasteurella multocida 1633; experiment: as above; format: cell-based; conditions: human; Pasteurella multocida 1633; 18 hours at 37° C; read-out: MIC
Protocol: as §1

[17] = test system: Ps. aeruginosa NCTC 10662; experiment: as above; format: cell-based; conditions: Pseudomonas aeruginosa, NCTC10662; human; Ps. aeruginosa NCTC 10662; 18 hours at 37° C; read-out: MIC
Protocol: as §1

[18] = test system: Staph. aureus Russell; experiment: as above; format: cell-based; conditions: Staphylococcus aureus; human; Staph. aureus Russell; 18 hours at 37° C; read-out: MIC
Protocol: as §1

[19] = test system: Staph. aureus W2827; experiment: as above; format: cell-based; conditions: Staphylococcus aureus; human; Staph. aureus W2827; 18 hours at 37° C; read-out: MIC
Protocol: as §1

[20] = test system: Strep. agalactiae 2788-B; experiment: as above; format: cell-based; conditions: Streptococcus agalactiae; human; Strep. agalactiae 2788-B; 18 hours at 37° C; read-out: MIC
Protocol: as §1

[21] = test system: Strep. faecalis I; experiment: as above; format: cell-based; conditions: Enterococcus faecalis; human; Strep. faecalis I; 18 hours at 37° C; read-out: MIC
Protocol: as §1

[22] = test system: Strep. spp. 64/848-C; experiment: as above; format: cell-based; conditions: human; Strep. spp. 64/848-C; 18 hours at 37° C; read-out: MIC
Protocol: as §1

[23] = test system: E. coli E1; experiment: MIC against veterinary bacteria in vitro (Diagnostic Sensitivity Test Agar); conditions: Escherichia coli, E1, 18 h
Protocol: (§2) The activity of the normonyl derivatives of the Examples against various veterinarily important bacteria, was assayed in vitro using two-fold serial dilutions in Diagnostic Sensitivity Test Agar inoculated with 10^4 organisms.

[24] = test system: Bord. bronchiseptica B08; experiment: as above; conditions: Bordetella bronchiseptica, B08, 18 h
Protocol: as §2

[25] = test system: Past. multocida PA1; experiment: as above; conditions: Pasteurella multocida, PA1, 18 h
Protocol: as §2

[26] = test system: Past. multocida PA2; experiment: as above; conditions: Pasteurella multocida, PA2, 18 h
Protocol: as §2

[27] = test system: Erysipelothrix rhusiopathiae NCTC 8163; experiment: as above; conditions: NCTC8163, 18 h
Protocol: as §2

[28] = test system: Corynebacterium pyogenes CY1; experiment: as above; conditions: CY1, 18 h
Protocol: as §2

[29] = test system: Staph. aureus 152 (pen. sens); experiment: as above; conditions: Staphylococcus aureus, 18 h
Protocol: as §2

[30] = test system: Strep. uberis SPU1; experiment: as above; conditions: Streptococcus uberis, SPU1, 18 h
Protocol: as §2

[31] = test system: Sarcina lutea 8340; experiment: MIC against human bacteria in vitro (nutrient agar, chocolated horse blood); format: cell-based; conditions: Micrococcus luteus; human; Sarcina lutea 8340; 18 hours at 37° C; read-out: MIC
Protocol: as §1

SMILES	MIC [4]	MIC [5]	MIC [6]	MIC [7]	MIC [8]	MIC [9]	MIC [10]	MIC [11]	MIC [12]	MIC [13]	MIC [14]	MIC [15]	MIC [16]	MIC [17]	MIC [18]	MIC [19]	MIC [20]	MIC [21]	MIC [22]	MIC [23]	further results
CC(=Cc1nnc(-c2cccc([N+](=O)[O-])c2)o1)CC1OCC(CC2OC2C(C)C(C)O)C(O)C1O (stereo not drawn) [Example 2, 2-m-Nitrophenyl-5-(1-normon-2-yl)-1,3,4-oxadiazole A]	0.025 µg/mL (≈ 0.0511 µM)	0.025 µg/mL (≈ 0.0511 µM)	0.025 µg/mL (≈ 0.0511 µM)	0.05 µg/mL (≈ 0.102 µM)	0.025 µg/mL (≈ 0.0511 µM)	0.025 µg/mL (≈ 0.0511 µM)	0.025 µg/mL (≈ 0.0511 µM)	> 10 µg/mL	2.5 µg/mL (≈ 5.11 µM)	4 µg/mL (≈ 8.17 µM)	> 128 µg/mL	> 128 µg/mL	2 µg/mL (≈ 4.09 µM)	> 128 µg/mL	64 µg/mL (≈ 131 µM)	64 µg/mL (≈ 131 µM)	32 µg/mL (≈ 65.4 µM)	> 128 µg/mL	32 µg/mL (≈ 65.4 µM)	> 80 µg/mL	MIC [1]: 0.05 µg/mL (≈ 0.102 µM); MIC ([2]; 144 h, M. hyopneumoniae Str. 11, 6 days at 37° C, read-out: MIC): 0.025 µg/mL (≈ 0.0511 µM); MIC [3]: 0.025 µg/mL (≈ 0.0511 µM); MIC [24]: > 80 µg/mL; MIC [25]: 2.5 µg/mL (≈ 5.11 µM); MIC [26]: 1.25 µg/mL (≈ 2.55 µM); MIC [27]: 40 µg/mL (≈ 81.7 µM); MIC [28]: > 80 µg/mL; MIC [29]: 10 µg/mL (≈ 20.4 µM); MIC [30]: 2.5 µg/mL (≈ 5.11 µM)
CSc1ccc(-c2nnc(C=C(C)CC3OCC(CC4OC4C(C)C(C)O)C(O)C3O)o2)cc1 (stereo not drawn) [Example 3, 2-p-Methylthiophenyl-5-(1-normon-2-yl)-1,3,4-oxadiazole A]	0.5 µg/mL (≈ 1.02 µM)	1 µg/mL (≈ 2.04 µM)	1 µg/mL (≈ 2.04 µM)	1 µg/mL (≈ 2.04 µM)	0.5 µg/mL (≈ 1.02 µM)	0.5 µg/mL (≈ 1.02 µM)	0.1 µg/mL (≈ 0.204 µM)	> 10 µg/mL	> 10 µg/mL	4 µg/mL (≈ 8.15 µM)	> 128 µg/mL	> 128 µg/mL	8 µg/mL (≈ 16.3 µM)	> 128 µg/mL	8 µg/mL (≈ 16.3 µM)	8 µg/mL (≈ 16.3 µM)	32 µg/mL (≈ 65.2 µM)	> 128 µg/mL	16 µg/mL (≈ 32.6 µM)	> 80 µg/mL	MIC ([1]; M. hyopneumoniae JF 435, 6 days at 37° C, read-out: MIC): 2.5 µg/mL (≈ 5.1 µM); MIC ([2]; STR.11, 144 h): 1 µg/mL (≈ 2.04 µM); MIC [31]: > 128 µg/mL; MIC [24]: > 80 µg/mL; MIC [25]: 2.5 µg/mL (≈ 5.1 µM); MIC [26]: 2.5 µg/mL (≈ 5.1 µM); MIC [27]: 40 µg/mL (≈ 81.5 µM); MIC [28]: > 80 µg/mL; MIC [29]: 2.5 µg/mL (≈ 5.1 µM); MIC [30]: 2.5 µg/mL (≈ 5.1 µM)
